Results taken from US20260022142A1, “MACROCYCLIC IMMUNOMODULATORS” (Bristol-Myers Squibb Company, priority 2022, published 2026).
Numbered stars: 1 amine (or outer) side, 2 acyl side, 3 side chain; on linkers, the order of the positions; unused ones are H or OH. Bridge positions count the residues as written; N and C are the ends. Square brackets hold non-standard residues; d marks the D form. Peptide text beside a SMILES is read from it. * marks the point of attachment. ξ: configuration not given here. Bip = N[C@@H](Cc1ccc(-c2ccccc2)cc1)C(=O)O; Phe(3-Me) = Cc1cccc(C[C@H](N)C(=O)O)c1; Val(3-OH) = CC(C)(O)[C@H](N)C(=O)O; X12 = CC(N)[C@H](N[*:1])C(=O)[*:2]; Cha = N[C@@H](CC1CCCCC1)C(=O)O; Cit = NC(=O)NCCC[C@H](N)C(=O)O; Thr(3ξ) = CC(O)[C@H](N)C(=O)O; Tle = CC(C)(C)[C@H](N)C(=O)O; X20 = CN(CCCCCCCCCCC(=O)O)*; Carboxymethyl = O=C(O)C*; Orn = NCCC[C@H](N)C(=O)O; Aun = NCCCCCCCCCCC(=O)O; Dab = NCC[C@H](N)C(=O)O; Dap = NC[C@H](N)C(=O)O; AEEA = NCCOCCOCC(=O)O; Piv = CC(C)(C)C(=O)*

Biological target: T1, PD-1/PD-L1 interaction (PE-labeled human PD-L1-Ig binding to Jurkat cell line over-expressing human PD-1) (Homo sapiens, UniProt Q15116)
T1 construct: expressed in transfected cells; host or cells: Jurkat
Assay: Jurkat-PD-1 Cell Binding High-Content Screening Assay (CBA)
Assay type: cell-based
Details: Jurkat cell line over-expressing human PD-1; PE-labeled PD-L1-Ig 20 nM final; read-out: Jurkat hPD1-PDL1 IC50
Summary of the method: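 Read-out is high-content imaging of cell-bound phycoerythrin-tagged PD-L1-Ig on fixed, Hoechst-counterstained Jurkat cells that over-express human PD-1. Compound exposure lasts 2 h at 37° C before the labeled ligand (20 nM final) is added for a further hour.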

T1 sequence (Q15116 25-288): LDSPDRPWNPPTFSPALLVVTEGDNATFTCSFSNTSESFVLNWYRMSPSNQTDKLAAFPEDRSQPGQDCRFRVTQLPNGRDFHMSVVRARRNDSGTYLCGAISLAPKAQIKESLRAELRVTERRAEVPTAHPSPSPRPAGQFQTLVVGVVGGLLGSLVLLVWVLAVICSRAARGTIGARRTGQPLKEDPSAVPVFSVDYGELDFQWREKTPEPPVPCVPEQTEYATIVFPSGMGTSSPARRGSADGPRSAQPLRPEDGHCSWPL

| SMILES | IC50 |
| --- | --- |
| Cc1cccc(C[C@@H]2NC(=O)[C@H](CC(=O)O)NC(=O)[C@H](Cc3ccc(OCC(=O)O)cc3)NC(=O)[C@H](Cc3ccc(OCC(=O)O)cc3)NC(=O)CSC[C@@H](C(=O)NCCOCCOCC(=O)N(C)CCCCCCCCCCC(=O)O)NC(=O)[C@H](C(C)O)NC(=O)[C@H](C(C)C)NC(=O)[C@H](CC3CCCCC3)NC(=O)[C@H](CCN)NC(=O)[C@@H](CC(C)C)NC(=O)[C@H](CCCN)NC(=O)[C@H](CCCNC(N)=O)NC(=O)[C@H](Cc3ccc(-c4ccccc4)cc3)NC(=O)[C@H](C(C)C)NC2=O)c1 (stereo partly drawn) [Compound 3509] ({CH2CO}-Y(Carboxymethyl)Y(Carboxymethyl)D[Phe(3-Me)]V[Bip][Cit][Orn][dL][Dab][Cha]V[Thr(3ξ)]C[AEEA]-X20; thioether N-14) | 136 nM |
| Cc1cccc(C[C@@H]2NC(=O)[C@H](CC(=O)O)NC(=O)[C@H](Cc3ccc(OCC(=O)O)cc3)NC(=O)[C@H](CCCNC(=N)N)NC(=O)CSC[C@@H](C(=O)N[C@@H](CNC(=O)C(C)(C)C)C(=O)NCCCCCCCCCCC(=O)O)NC(=O)[C@H](C(C)O)NC(=O)[C@H](C(C)C)NC(=O)[C@H](CC3CCCCC3)NC(=O)[C@H](CCN)NC(=O)[C@@H](CC(C)C)NC(=O)[C@H](CCCN)NC(=O)[C@H](CCCNC(N)=O)NC(=O)[C@H](Cc3ccc(-c4ccccc4)cc3)NC(=O)[C@H](C(C)C)NC2=O)c1 (stereo partly drawn) [Compound 3510] ({CH2CO}-RY(Carboxymethyl)D[Phe(3-Me)]V[Bip][Cit][Orn][dL][Dab][Cha]V[Thr(3ξ)]C[Dap](Piv)[Aun]-OH; thioether N-14) | 55.3 nM |
| Cc1cccc(C[C@@H]2NC(=O)[C@H](CC(=O)O)NC(=O)[C@H](Cc3ccc(OCC(=O)O)cc3)NC(=O)[C@H](CCNC(=O)C(C)(C)C)NC(=O)CSC[C@@H](C(=O)N[C@@H](CCN)C(=O)NCCCCCCCCCCC(=O)O)NC(=O)[C@H](C(C)O)NC(=O)[C@H](C(C)C)NC(=O)[C@H](CC3CCCCC3)NC(=O)[C@H](CCN)NC(=O)[C@@H](CC(C)C)NC(=O)[C@H](CCCN)NC(=O)[C@H](CCCNC(N)=O)NC(=O)[C@H](Cc3ccc(-c4ccccc4)cc3)NC(=O)[C@H](C(C)C)NC2=O)c1 (stereo partly drawn) [Compound 3511] ({CH2CO}-[Dab](Piv)Y(Carboxymethyl)D[Phe(3-Me)]V[Bip][Cit][Orn][dL][Dab][Cha]V[Thr(3ξ)]C[Dab][Aun]-OH; thioether N-14) | 21.7 nM |
| Cc1cccc(C[C@@H]2NC(=O)[C@H](CC(=O)O)NC(=O)[C@H](Cc3ccc(OCC(=O)O)cc3)NC(=O)[C@H](CCCNC(=N)N)NC(=O)CSC[C@@H](C(=O)N[C@@H](CCN)C(=O)NCCCCCCCCCCC(=O)O)NC(=O)[C@H](C(C)O)NC(=O)[C@H](C(C)(C)O)NC(=O)[C@H](CC3CCCCC3)NC(=O)[C@H](CCN)NC(=O)[C@@H](CC(C)C)NC(=O)[C@H](CCCN)NC(=O)[C@H](CCCNC(N)=O)NC(=O)[C@H](Cc3ccc(-c4ccccc4)cc3)NC(=O)[C@H](C(C)C)NC2=O)c1 (stereo partly drawn) [Compound 3512] ({CH2CO}-RY(Carboxymethyl)D[Phe(3-Me)]V[Bip][Cit][Orn][dL][Dab][Cha][Val(3-OH)][Thr(3ξ)]C[Dab][Aun]-OH; thioether N-14) | 18.2 nM |
| Cc1cccc(C[C@@H]2NC(=O)[C@H](CC(=O)O)NC(=O)[C@H](Cc3ccc(OCC(=O)O)cc3)NC(=O)[C@H](CCCNC(=N)N)NC(=O)CSC[C@@H](C(=O)N[C@@H](CCN)C(=O)NCCCCCCCCCCC(=O)O)NC(=O)[C@H](C(C)O)NC(=O)[C@H](C(C)(C)O)NC(=O)[C@H](CC3CCCCC3)NC(=O)[C@H](CCN)NC(=O)[C@@H](CC(C)C)NC(=O)[C@H](CCCN)NC(=O)[C@H](Cc3ccc(OCC(=O)O)cc3)NC(=O)[C@H](Cc3ccc(-c4ccccc4)cc3)NC(=O)[C@H](Cc3ccc(OCC(=O)O)cc3)NC2=O)c1 (stereo partly drawn) [Compound 3513] ({CH2CO}-RY(Carboxymethyl)D[Phe(3-Me)]Y(Carboxymethyl)[Bip]Y(Carboxymethyl)[Orn][dL][Dab][Cha][Val(3-OH)][Thr(3ξ)]C[Dab][Aun]-OH; thioether N-14) | 10.8 nM |
| Cc1cccc(C[C@@H]2NC(=O)[C@H](CC(=O)O)NC(=O)[C@H](Cc3ccc(OCC(=O)O)cc3)NC(=O)[C@H](CCCNC(=N)N)NC(=O)CSC[C@@H](C(=O)N[C@H](CC(N)=O)C(=O)NCCCCCCCCCCC(=O)O)NC(=O)[C@H](C(C)O)NC(=O)[C@H](CO)NC(=O)[C@H](CC3CCCCC3)NC(=O)[C@H](CCN)NC(=O)[C@@H](CC(C)C)NC(=O)[C@H](CCCN)NC(=O)[C@H](Cc3ccc(OCC(=O)O)cc3)NC(=O)[C@H](Cc3ccc(-c4ccccc4)cc3)NC(=O)[C@H](Cc3ccc(OCC(=O)O)cc3)NC2=O)c1 (stereo partly drawn) [Compound 3515] ({CH2CO}-RY(Carboxymethyl)D[Phe(3-Me)]Y(Carboxymethyl)[Bip]Y(Carboxymethyl)[Orn][dL][Dab][Cha]S[Thr(3ξ)]C[dN][Aun]-OH; thioether N-14) | 169 nM |
| Cc1cccc(C[C@@H]2NC(=O)[C@H](CC(=O)O)NC(=O)[C@H](Cc3ccc(OCC(=O)O)cc3)NC(=O)[C@H](CCCNC(=N)N)NC(=O)CSC[C@@H](C(=O)N[C@@H](CCN)C(=O)NCCCCCCCCCCC(=O)O)NC(=O)[C@H](CCC(N)=O)NC(=O)[C@H](CO)NC(=O)[C@H](CC3CCCCC3)NC(=O)[C@H](CCN)NC(=O)[C@@H](CC(C)C)NC(=O)[C@H](CCCN)NC(=O)[C@H](Cc3ccc(OCC(=O)O)cc3)NC(=O)[C@H](Cc3ccc(-c4ccccc4)cc3)NC(=O)[C@H](Cc3ccc(OCC(=O)O)cc3)NC2=O)c1 [Compound 3516] ({CH2CO}-RY(Carboxymethyl)D[Phe(3-Me)]Y(Carboxymethyl)[Bip]Y(Carboxymethyl)[Orn][dL][Dab][Cha]SQC[Dab][Aun]-OH; thioether N-14) | 10.3 nM |

The remaining lines, values ahead:

| IC50 | SMILES |
| --- | --- |
| 27.9 nM | Cc1cccc(C[C@@H]2NC(=O)[C@H](CC(=O)O)NC(=O)[C@H](Cc3ccc(OCC(=O)O)cc3)NC(=O)[C@H](CCNC(=O)C(C)(C)C)NC(=O)CSC[C@@H](C(=O)N[C@@H](CCN)C(=O)NCCCCCCCCCCC(=O)O)NC(=O)[C@H](C(C)O)NC(=O)[C@H](C(C)(C)C)NC(=O)[C@H](CC3CCCCC3)NC(=O)[C@H](CCN)NC(=O)[C@@H](CC(C)C)NC(=O)[C@H](CCCN)NC(=O)[C@H](Cc3ccc(OCC(=O)O)cc3)NC(=O)[C@H](Cc3ccc(-c4ccccc4)cc3)NC(=O)[C@H](Cc3ccc(O)cc3)NC2=O)c1 (stereo partly drawn) [Compound 3517] ({CH2CO}-[Dab](Piv)Y(Carboxymethyl)D[Phe(3-Me)]Y[Bip]Y(Carboxymethyl)[Orn][dL][Dab][Cha][Tle][Thr(3ξ)]C[Dab][Aun]-OH; thioether N-14) |
| 35.7 nM | Cc1cccc(C[C@@H]2NC(=O)[C@H](CC(=O)O)NC(=O)[C@H](Cc3ccc(OCC(=O)O)cc3)NC(=O)[C@H](CNC(=O)C(C)(C)C)NC(=O)CSC[C@@H](C(=O)N[C@@H](CC(N)=O)C(=O)NCCCCCCCCCCC(=O)O)NC(=O)[C@H](C(C)O)NC(=O)[C@H](C(C)(C)C)NC(=O)[C@H](CC3CCCCC3)NC(=O)[C@H](CCN)NC(=O)[C@@H](CC(C)C)NC(=O)[C@H](CCCN)NC(=O)[C@H](Cc3ccc(OCC(=O)O)cc3)NC(=O)[C@H](Cc3ccc(-c4ccccc4)cc3)NC(=O)[C@H](Cc3ccc(O)cc3)NC2=O)c1 (stereo partly drawn) [Compound 3518] ({CH2CO}-[Dap](Piv)Y(Carboxymethyl)D[Phe(3-Me)]Y[Bip]Y(Carboxymethyl)[Orn][dL][Dab][Cha][Tle][Thr(3ξ)]CN[Aun]-OH; thioether N-14) |
| 10.4 nM | Cc1cccc(C[C@@H]2NC(=O)[C@H](CC(=O)O)NC(=O)[C@H](Cc3ccc(OCC(=O)O)cc3)NC(=O)[C@H](C(C)N)NC(=O)CSC[C@@H](C(=O)N[C@@H](CCN)C(=O)NCCCCCCCCCCC(=O)O)NC(=O)[C@H](CCC(N)=O)NC(=O)[C@H](C(C)O)NC(=O)[C@H](CC3CCCCC3)NC(=O)[C@H](CCN)NC(=O)[C@@H](CC(C)C)NC(=O)[C@H](CCCN)NC(=O)[C@H](Cc3ccc(OCC(=O)O)cc3)NC(=O)[C@H](Cc3ccc(-c4ccccc4)cc3)NC(=O)[C@H](Cc3ccc(OCC(=O)O)cc3)NC2=O)c1 (stereo partly drawn) [Compound 3519] ({CH2CO}-[X12]Y(Carboxymethyl)D[Phe(3-Me)]Y(Carboxymethyl)[Bip]Y(Carboxymethyl)[Orn][dL][Dab][Cha][Thr(3ξ)]QC[Dab][Aun]-OH; thioether N-14) |
| 608 nM | Cc1cccc(C[C@@H]2NC(=O)[C@H](CC(=O)O)NC(=O)[C@H](Cc3ccc(OCC(=O)O)cc3)NC(=O)[C@H](C(C)O)NC(=O)CSC[C@@H](C(=O)N[C@H](CC(N)=O)C(=O)NCCCCCCCCCCC(=O)O)NC(=O)[C@H](C(C)(C)C)NC(=O)[C@H](CO)NC(=O)[C@H](CC3CCCCC3)NC(=O)[C@H](CCN)NC(=O)[C@@H](CC(C)C)NC(=O)[C@H](CCCN)NC(=O)[C@H](Cc3ccc(OCC(=O)O)cc3)NC(=O)[C@H](Cc3ccc(-c4ccccc4)cc3)NC(=O)[C@H](Cc3ccc(O)cc3)NC2=O)c1 (stereo partly drawn) [Compound 3520] ({CH2CO}-[Thr(3ξ)]Y(Carboxymethyl)D[Phe(3-Me)]Y[Bip]Y(Carboxymethyl)[Orn][dL][Dab][Cha]S[Tle]C[dN][Aun]-OH; thioether N-14) |
| 40.8 nM | Cc1cccc(C[C@@H]2NC(=O)[C@H](CC(=O)O)NC(=O)[C@H](Cc3ccc(OCC(=O)O)cc3)NC(=O)[C@H](CCCNC(=N)N)NC(=O)CSC[C@@H](C(=O)N[C@H](CC(N)=O)C(=O)NCCCCCCCCCCC(=O)O)NC(=O)[C@H](C(C)O)NC(=O)[C@H](C(C)O)NC(=O)[C@H](CC3CCCCC3)NC(=O)[C@H](CCN)NC(=O)[C@@H](CC(C)C)NC(=O)[C@H](CCCN)NC(=O)[C@H](CCCNC(N)=O)NC(=O)[C@H](Cc3ccc(-c4ccccc4)cc3)NC(=O)[C@H](C(C)C)NC2=O)c1 (stereo partly drawn) [Compound 3522] ({CH2CO}-RY(Carboxymethyl)D[Phe(3-Me)]V[Bip][Cit][Orn][dL][Dab][Cha][Thr(3ξ)][Thr(3ξ)]C[dN][Aun]-OH; thioether N-14) |
